ChEMBL document CHEMBL1156760, “Synthesis and biological evaluation of new nanomolar competitive inhibitors of Helicobacter pylori type II dehydroquinase. Structural details of the role of the aromatic moieties with essential residues” (J Med Chem, 2010)

Target: T1, 3-dehydroquinate dehydratase (Helicobacter pylori (strain ATCC 700392 / 26695) (Campylobacterpylori), UniProt Q48255)
T1 sequence (Q48255 whole entry): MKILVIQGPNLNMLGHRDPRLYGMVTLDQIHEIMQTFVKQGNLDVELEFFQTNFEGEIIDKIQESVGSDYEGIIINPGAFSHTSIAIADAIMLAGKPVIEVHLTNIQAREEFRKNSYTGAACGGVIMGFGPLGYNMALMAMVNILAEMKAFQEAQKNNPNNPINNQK
Assay: Inhibition of Helicobacter pylori DHQ2 by UV spectroscopy

O=C(O)[C@]1(O)C=C(OCc2cc3ccccc3s2)[C@@H](O)[C@H](O)C1
Ki: 132 nM
